{
  "source": "patent US20120208204A1",
  "about": "“Compositions and Methods for Inhibiting Tumor Growth” (The Brigham and Women's Hospital, Inc., priority 2009, published 2012)",
  "data": [
    {"tested_on": "SGK2", "test": "Inhibition of kinase activity by SGK2 inhibitory compounds, single concentration", "format": "biochemical", "conditions": "10 μM compound", "description": "A library of compounds was screened for inhibitors of SGK2 and PAK3 activity by assaying phosphorylation of a generic peptide substrate either directly; or indirectly by inhibiting upstream kinase PDK1 from activating the enzyme in vitro. In both cases, the phosphorylated substrate was detected using a specific anti-phospho peptide antibody that is coupled with Eu^3+ Cryptate and XL665 conjugated with streptavidin. […] All initial hits were re-assayed as a dose response series with eight 3-fold dilutions and resulting final concentrations ranged from 0.9 nM to 20 μM.", "units": {"% Inhibition at 10 μM": "%"}, "values": [
      {"smiles": "CN(C)c1ccc(NC(=O)Nc2cccs2)cc1", "note": "[LDN-0058882]", "% Inhibition at 10 μM": 61},
      {"smiles": "O=c1oc2cc(Br)c(O)c(Br)c2s1", "note": "[LDN-0060240]", "% Inhibition at 10 μM": 94},
      {"smiles": "Nc1ccc2[nH]c(C=Cc3ccccc3)nc2c1", "note": "[LDN-0060426]", "% Inhibition at 10 μM": 71},
      {"smiles": "CN(C)c1ccc(C=Cc2nc3cc(N)ccc3[nH]2)cc1", "note": "[LDN-0060496]", "% Inhibition at 10 μM": 67},
      {"smiles": "Nc1ccc2[nH]c(C=Cc3ccc(Cl)cc3)nc2c1", "note": "[LDN-0060498]", "% Inhibition at 10 μM": 68},
      {"smiles": "CN(C)c1ccc(-c2nc3cc(N)ccc3[nH]2)cc1", "note": "[LDN-0060537]", "% Inhibition at 10 μM": 72},
      {"smiles": "O=c1oc2c(Br)c(O)c(Br)cc2s1", "note": "[LDN-0060733]", "% Inhibition at 10 μM": 93},
      {"smiles": "O=C(O)C1Nc2ccc(Br)cc2C2C=CCC12", "note": "(stereo not shown) [LDN-0061702]", "% Inhibition at 10 μM": 92},
      {"smiles": "Cc1ccc(C)n1-c1ccc(O)c(C(=O)O)c1", "note": "[LDN-0062564]", "% Inhibition at 10 μM": 90},
      {"smiles": "O=C(O)C1Nc2c(O)cccc2C2C=CCC12", "note": "(stereo not shown) [LDN-0062847]", "% Inhibition at 10 μM": 95},
      {"smiles": "O=c1cc(-c2ccccc2)c2ccc(O)c(O)c2o1", "note": "[LDN-0063260]", "% Inhibition at 10 μM": 98},
      {"smiles": "Nc1ccc2oc3ccc(N)cc3c(=O)c2c1", "note": "[LDN-0063356]", "% Inhibition at 10 μM": 50},
      {"smiles": "Oc1ccccc1-c1cc(-c2ccco2)[nH]n1", "note": "[LDN-0064229]", "% Inhibition at 10 μM": 85},
      {"smiles": "CN1c2ccccc2Sc2cc(N)ccc21", "note": "[LDN-0065927]", "% Inhibition at 10 μM": 52},
      {"smiles": "Nc1ccc2[nH]c(-c3ccco3)nc2c1", "note": "[LDN-0065931]", "% Inhibition at 10 μM": 78},
      {"smiles": "CC(C)COC(=O)c1ccc2c(c1)C1C=CCC1C(C(=O)O)N2", "note": "(stereo not shown) [LDN-0068134]", "% Inhibition at 10 μM": 84},
      {"smiles": "N#Cc1c(-c2ccco2)cc(-c2cccs2)nc1N", "note": "[LDN-0071067]", "% Inhibition at 10 μM": 80},
      {"smiles": "Cc1c2ccccc2nc2c(F)c(NCCO)c(F)c(F)c12", "note": "[LDN-0071563]", "% Inhibition at 10 μM": 88},
      {"smiles": "Cc1c2ccccc2nc2c(F)c(NC(C)C)c(F)c(F)c12", "note": "[LDN-0071567]", "% Inhibition at 10 μM": 88},
      {"smiles": "COc1cccc(=O)c2c(C)n(CC(=O)c3ccccc3)c(C)c12", "note": "[LDN-0071595]", "% Inhibition at 10 μM": 64},
      {"smiles": "Oc1ccc(-c2csc(NCc3ccco3)n2)cc1", "note": "[LDN-0071858]", "% Inhibition at 10 μM": 65},
      {"smiles": "CNC(=O)Oc1c(Br)cc2sc(=O)oc2c1Br", "note": "[LDN-0072860]", "% Inhibition at 10 μM": 72},
      {"smiles": "CN(C)c1ccc2nc(SCC(=O)c3ccccc3)sc2c1", "note": "[LDN-0073108]", "% Inhibition at 10 μM": 70},
      {"smiles": "Nc1ccc2c(c1)OC1(CCCC1)O2", "note": "[LDN-0073507]", "% Inhibition at 10 μM": 74},
      {"smiles": "CCCc1cc2c(cc1N)OCO2", "note": "[LDN-0073854]", "% Inhibition at 10 μM": 67},
      {"smiles": "Oc1c(Cl)cc(Cl)c2c1NCCC2", "note": "[LDN-0073973]", "% Inhibition at 10 μM": 67},
      {"smiles": "O=C1CC(N2CCCCC2)C=C1Nc1ccc(F)cc1", "note": "(stereo not shown) [LDN-0074168]", "% Inhibition at 10 μM": 73},
      {"smiles": "CCC(=O)N1CCc2cc(Br)cc(S(=O)(=O)Nc3ccc(Br)cc3)c21", "note": "[LDN-0074939]", "% Inhibition at 10 μM": 67},
      {"smiles": "CC#CC1=C(CO)C(=O)C2OC2C1=O", "note": "(stereo not shown) [LDN-0080086]", "% Inhibition at 10 μM": 71},
      {"smiles": "Oc1ccc(N=Cc2ccc[nH]2)cc1N=Cc1ccc[nH]1", "note": "[LDN-0085170]", "% Inhibition at 10 μM": 62},
      {"smiles": "Oc1ccc(Cl)cc1-c1cc(-c2ccco2)n[nH]1", "note": "[LDN-0086824]", "% Inhibition at 10 μM": 68},
      {"smiles": "Cc1sc(NC(=O)COc2cccc(F)c2)c(C#N)c1C", "note": "[LDN-0086947]", "% Inhibition at 10 μM": 67},
      {"smiles": "Oc1cccc2ccc(Nc3ccccn3)nc12", "note": "[LDN-0088017]", "% Inhibition at 10 μM": 84},
      {"smiles": "O=C(O)C1C2CC=CC2c2cc(Br)cc3c2N1CC1CC=CC31", "note": "(stereo not shown) [LDN-0088050]", "% Inhibition at 10 μM": 67},
      {"smiles": "c1coc(C2=Nc3cccc4cccc(c34)N2)c1", "note": "[LDN-0088682]", "% Inhibition at 10 μM": 80},
      {"smiles": "CCOc1ccc(NC(=O)CSc2ncnc3c2oc2ccccc23)cc1", "note": "[LDN-0094202]", "% Inhibition at 10 μM": 78},
      {"smiles": "Cc1cc(N)c2ccccc2[n+]1CCCCCCCCCC[n+]1c(C)cc(N)c2ccccc21.[Cl-].[Cl-]", "note": "[LDN-0096422]", "% Inhibition at 10 μM": 79},
      {"smiles": "O=C(O)c1cc(O)c(=O)c2c(O)c(O)ccc2c1", "note": "[LDN-0096503]", "% Inhibition at 10 μM": 73},
      {"smiles": "C=C1c2cccc(O)c2C(=O)C2=C(O)C3(O)C(=O)C(C(N)=O)=C(O)C(N(C)C)C3C(O)C12.Cl", "note": "(stereo not shown) [LDN-0096663]", "% Inhibition at 10 μM": 70},
      {"smiles": "O=c1cc(-c2ccccc2)oc2cc(O)c(O)c(O)c12", "note": "[LDN-0096673]", "% Inhibition at 10 μM": 67},
      {"smiles": "Oc1cc(O)c2c(c1)OC(O)(c1ccc(O)c(O)c1)C(O)C2", "note": "(stereo not shown) [LDN-0096696]", "% Inhibition at 10 μM": 84},
      {"smiles": "O=C(OC1Cc2c(O)cc(O)cc2OC1c1ccc(O)c(O)c1)c1cc(O)c(O)c(O)c1", "note": "(stereo not shown) [LDN-0096721]", "% Inhibition at 10 μM": 93},
      {"smiles": "O=c1c(O)cccc2cc(O)c(O)c(O)c12", "note": "[LDN-0096727]", "% Inhibition at 10 μM": 94},
      {"smiles": "O=c1c(O)cccc2ccc(O)c(O)c12", "note": "[LDN-0096728]", "% Inhibition at 10 μM": 87},
      {"smiles": "CC(=O)Oc1cc(-c2coc3cc(OC(C)=O)c(OC(C)=O)c(OC(C)=O)c3c2=O)cc(OC(C)=O)c1OC(C)=O", "note": "[LDN-0096738]", "% Inhibition at 10 μM": 96},
      {"smiles": "O=c1cc(C2Oc3cc(O)cc(O)c3CC2O)cc2c(C3Oc4cc(O)cc(O)c4CC3O)cc(O)c(O)c2c1O", "note": "(stereo not shown) [LDN-0096771]", "% Inhibition at 10 μM": 89},
      {"smiles": "O=c1c(-c2cc(O)c(O)c(O)c2)coc2cc(O)c(O)c(O)c12", "note": "[LDN-0096812]", "% Inhibition at 10 μM": 97},
      {"smiles": "Oc1cc2c(cc1O)C1c3ccc(O)c(O)c3OCC1(O)C2", "note": "(stereo not shown) [LDN-0096990]", "% Inhibition at 10 μM": 91},
      {"smiles": "Oc1cc(O)c2c(c1)OC(c1cc(O)c(O)c(O)c1)C(O)C2", "note": "(stereo not shown) [LDN-0097128]", "% Inhibition at 10 μM": 68},
      {"smiles": "C=C1c2c(Cl)ccc(O)c2C(=O)C2=C(O)C3(O)C(=O)C(C(N)=O)=C(O)C(N(C)C)C3C(O)C12.O=C(O)c1cc(S(=O)(=O)O)ccc1O", "note": "(stereo not shown) [LDN-0097423]", "% Inhibition at 10 μM": 76},
      {"smiles": "O=c1oc2c(O)c(O)cc3c(=O)oc4c(O)c(O)cc1c4c23", "note": "[LDN-0097519]", "% Inhibition at 10 μM": 85},
      {"smiles": "O=C1C=C2CC3(O)COc4c(ccc(O)c4O)C3=C2C=C1O", "note": "(stereo not shown) [LDN-0097524]", "% Inhibition at 10 μM": 93},
      {"smiles": "O=C(OCC1OC(OC(=O)c2cc(O)c(O)c(OC(=O)c3cc(O)c(O)c(O)c3)c2)C(OC(=O)c2cc(O)c(O)c(OC(=O)c3cc(O)c(O)c(O)c3)c2)C(OC(=O)c2cc(O)c(O)c(OC(=O)c3cc(O)c(O)c(O)c3)c2)C1OC(=O)c1cc(O)c(O)c(OC(=O)c2cc(O)c(O)c(O)c2)c1)c1cc(O)c(O)c(OC(=O)c2cc(O)c(O)c(O)c2)c1", "note": "(stereo not shown) [LDN-0097728]", "% Inhibition at 10 μM": 85},
      {"smiles": "O=c1cc(-c2cc(O)c(O)c(O)c2)oc2cc(O)cc(O)c12", "note": "[LDN-0097731]", "% Inhibition at 10 μM": 87},
      {"smiles": "CCc1cc(-c2n[nH]cc2-c2ccc(Br)cc2)c(O)cc1O", "note": "[LDN-0106197]", "% Inhibition at 10 μM": 67},
      {"smiles": "O=C(CSc1ncnc2c1oc1ccccc12)Nc1ccccc1", "note": "[LDN-0107896]", "% Inhibition at 10 μM": 73},
      {"smiles": "COc1ccc(NC(=O)CSc2ncnc3c2oc2ccccc23)cc1", "note": "[LDN-0107905]", "% Inhibition at 10 μM": 66},
      {"smiles": "Cc1cccc(NC(=O)CSc2ncnc3c2oc2ccccc23)c1C", "note": "[LDN-0107915]", "% Inhibition at 10 μM": 67},
      {"smiles": "O=C(Nc1cccc(-c2cscn2)c1)C1CCN(Cc2cccc(-c3ccco3)c2)CC1", "note": "[LDN-0117557]", "% Inhibition at 10 μM": 60},
      {"smiles": "Cc1ccc(NC(=O)Cn2cc(C(=O)c3ccccc3)c(=O)c3ccc(C)nc32)cc1", "note": "[LDN-0130103]", "% Inhibition at 10 μM": 62},
      {"smiles": "Cc1ccc2c(=O)c(C(=O)c3ccccc3)cn(CC(=O)Nc3cccc(C)c3C)c2n1", "note": "[LDN-0130105]", "% Inhibition at 10 μM": 70}
    ]}
  ]
}
